Results: patent US20200390729A1, “OPHTHALMIC TOPICAL COMPOSITION COMPRISING DOBESILIC ACID FOR TREATING DISEASES OF THE POSTERIOR SEGMENT OF THE EYE” (LABORATORIOS SALVAT, S.A., priority 2017, published 2020)
Read-outs that look alike come from different tables or passages of the source.

Assay: Ocular distribution of CDO in rats, single dose topical ocular vs. oral
Format: in vivo, Sprague Dawley (SD) rat
Set-up: key to CDO concentrations Retina / CDO concentrations Optic nerve: —: non-detectable
Procedure: In Sprague Dawley (SD) rat, weighing approximately 200 g, CDO was administered by topical ocular instillation (10 μl/eye) at 10 mg/ml (composition 2 of Example 1), at 100 mg/ml (composition 5 of Example 1) or by oral gavage at 50 mg/kg, at 200 mg/kg or at 750 mg/kg in aqueous solution (from compositions 1, 3 and 4, respectively, of Example 1). At 15, 60, 180 and 360 minutes post-administration, animals were euthanized and plasma and ocular tissues including sclera, cornea, retina, vitreous humour/lens and optic nerve were collected.
Bioanalysis of CDO was performed depending on the type of matrix. In the case of plasma, proteins were precipitated using methanol. In the case of tissues, samples were grinded in a Mini Bead Beater using zirconium beads and methanol/water (1:1) (v/v) as solvent. After centrifugation, samples were analyzed by UPLC-MS/MS.
Chromatographic separation was carried out using an Acquity CSH Fluoro Phenyl column (1.7 μm, 50×2.1 mm). Mobile phase consisted of a gradient using 0.1% formic acid in water and acetonitrile from 5% to 45% in 4.5 min at a flow rate of 0.6 ml/min.
With regard to the mass spectrometric detection, the electrospray ionization source worked to record negative ions. Multiple Reaction Monitoring (MRM) acquisition mode of the deprotonated molecular ions was performed. The transition monitored for CDO was m/z 189.0→80.1 with a cone voltage of 45 V and collision energy of 25 eV.

[1] = rat, oral 50 mg/Kg = 10 mg, 0.25 h
[2] = rat, oral 50 mg/Kg = 10 mg, 1 h
[3] = rat, topical eye 10 mg/ml (eye drop of 10 μl) = 0.1 mg, 3 h

## O=S(=O)(O)c1cc(O)ccc1O [CDO, Calcium dobesilate monohydrate]
Sprague Dawley, cornea, rat, topical eye 10 mg/ml (eye drop of 10 μl) = 0.1 mg, 0.25 h, read-out: CDO concentrations Cornea
  concentration at 0.25 h: 4610 ng/g
Sprague Dawley, cornea, rat, topical eye 10 mg/ml (eye drop of 10 μl) = 0.1 mg, 1 h, read-out: CDO concentrations Cornea
  concentration at 1 h: 1010 ng/g
Sprague Dawley, cornea, rat, topical eye 10 mg/ml (eye drop of 10 μl) = 0.1 mg, 3 h, read-out: CDO concentrations Cornea
  concentration at 3 h: 1990 ng/g
Sprague Dawley, cornea, rat, topical eye 100 mg/ml (eye drop of 10 μl) = 1 mg, 0.25 h, read-out: CDO concentrations Cornea
  concentration at 0.25 h: 58000 ng/g
Sprague Dawley, cornea, rat, topical eye 100 mg/ml (eye drop of 10 μl) = 1 mg, 1 h, read-out: CDO concentrations Cornea
  concentration at 1 h: 1720 ng/g
Sprague Dawley, cornea, rat, topical eye 100 mg/ml (eye drop of 10 μl) = 1 mg, 3 h, read-out: CDO concentrations Cornea
  concentration at 3 h: 3110 ng/g
Sprague Dawley, optic nerve, rat, oral 50 mg/Kg = 10 mg, 3 h, read-out: CDO concentrations Optic nerve
  concentration at 3 h: 1890 ng/g
Sprague Dawley, optic nerve, rat, oral 50 mg/Kg = 10 mg, 6 h, read-out: CDO concentrations Optic nerve
  concentration at 6 h: 410 ng/g
Sprague Dawley, plasma, rat, oral 200 mg/Kg = 40 mg, 0.25 h, read-out: CDO concentrations Plasma
  concentration at 0.25 h: 3100 ng/g
Sprague Dawley, plasma, rat, oral 200 mg/Kg = 40 mg, 1 h, read-out: CDO concentrations Plasma
  concentration at 1 h: 9040 ng/g
Sprague Dawley, plasma, rat, oral 200 mg/Kg = 40 mg, 3 h, read-out: CDO concentrations Plasma
  concentration at 3 h: 11400 ng/g
Sprague Dawley, plasma, rat, oral 750 mg/Kg = 150 mg, 0.25 h, read-out: CDO concentrations Plasma
  concentration at 0.25 h: 12600 ng/g
Sprague Dawley, plasma, rat, oral 750 mg/Kg = 150 mg, 1 h, read-out: CDO concentrations Plasma
  concentration at 1 h: 28800 ng/g
Sprague Dawley, plasma, rat, oral 750 mg/Kg = 150 mg, 3 h, read-out: CDO concentrations Plasma
  concentration at 3 h: 47600 ng/g
Sprague Dawley, retina/choroid, rat, topical eye 10 mg/ml (eye drop of 10 μl) = 0.1 mg, 0.25 h, read-out: CDO concentrations Retina/Choroid
  concentration at 0.25 h: 1830 ng/g
Sprague Dawley, retina/choroid, rat, topical eye 10 mg/ml (eye drop of 10 μl) = 0.1 mg, 1 h, read-out: CDO concentrations Retina/Choroid
  concentration at 1 h: 600 ng/g
Sprague Dawley, retina/choroid, rat, topical eye 10 mg/ml (eye drop of 10 μl) = 0.1 mg, 3 h, read-out: CDO concentrations Retina/Choroid
  concentration at 3 h: 2150 ng/g
Sprague Dawley, retina/choroid, rat, topical eye 100 mg/ml (eye drop of 10 μl) = 1 mg, 0.25 h, read-out: CDO concentrations Retina/Choroid
  concentration at 0.25 h: 17600 ng/g
Sprague Dawley, retina, rat, oral 200 mg/Kg = 40 mg, 0.25 h, read-out: CDO concentrations Retina
  concentration at 0.25 h: 110 ng/g
Sprague Dawley, retina, rat, oral 200 mg/Kg = 40 mg, 1 h, read-out: CDO concentrations Retina
  concentration at 1 h: 470 ng/g
Sprague Dawley, retina, rat, oral 200 mg/Kg = 40 mg, 3 h, read-out: CDO concentrations Retina
  concentration at 3 h: 1040 ng/g
Sprague Dawley, retina, rat, oral 750 mg/Kg = 150 mg, 0.25 h, read-out: CDO concentrations Retina
  concentration at 0.25 h: 670 ng/g
Sprague Dawley, retina, rat, oral 750 mg/Kg = 150 mg, 1 h, read-out: CDO concentrations Retina
  concentration at 1 h: 1340 ng/g
Sprague Dawley, retina, rat, oral 750 mg/Kg = 150 mg, 3 h, read-out: CDO concentrations Retina
  concentration at 3 h: 2420 ng/g
Sprague Dawley, retina, rat, topical eye 10 mg/ml (eye drop of 10 μl) = 0.1 mg, 0.25 h, read-out: CDO concentrations Retina
  concentration at 0.25 h: 100 ng/g
Sprague Dawley, retina, rat, topical eye 100 mg/ml (eye drop of 10 μl) = 1 mg, 0.25 h, read-out: CDO concentrations Retina
  concentration at 0.25 h: 2030 ng/g
Sprague Dawley, retina, rat, topical eye 100 mg/ml (eye drop of 10 μl) = 1 mg, 1 h, read-out: CDO concentrations Retina
  concentration at 1 h: 640 ng/g
Sprague Dawley, retina, rat, topical eye 100 mg/ml (eye drop of 10 μl) = 1 mg, 3 h, read-out: CDO concentrations Retina
  concentration at 3 h: 250 ng/g
Sprague Dawley, retina, rat, topical eye 100 mg/ml (eye drop of 10 μl) = 1 mg, 6 h, read-out: CDO concentrations Retina
  concentration at 6 h: 130 ng/g
Sprague Dawley, sclera, rat, topical eye 10 mg/ml (eye drop of 10 μl) = 0.1 mg, 0.25 h, read-out: CDO concentrations Sclera
  concentration at 0.25 h: 170 ng/g
Sprague Dawley, sclera, rat, topical eye 10 mg/ml (eye drop of 10 μl) = 0.1 mg, 1 h, read-out: CDO concentrations Sclera
  concentration at 1 h: 330 ng/g
Sprague Dawley, sclera, rat, topical eye 10 mg/ml (eye drop of 10 μl) = 0.1 mg, 3 h, read-out: CDO concentrations Sclera
  concentration at 3 h: 770 ng/g
Sprague Dawley, sclera, rat, topical eye 100 mg/ml (eye drop of 10 μl) = 1 mg, 0.25 h, read-out: CDO concentrations Sclera
  concentration at 0.25 h: 3540 ng/g
Sprague Dawley, sclera, rat, topical eye 100 mg/ml (eye drop of 10 μl) = 1 mg, 1 h, read-out: CDO concentrations Sclera
  concentration at 1 h: 1140 ng/g
Sprague Dawley, sclera, rat, topical eye 100 mg/ml (eye drop of 10 μl) = 1 mg, 3 h, read-out: CDO concentrations Sclera
  concentration at 3 h: 220 ng/g
Sprague Dawley, vitreous humour/lens, rat, topical eye 10 mg/ml (eye drop of 10 μl) = 0.1 mg, 0.25 h, read-out: CDO concentrations Vitreous humour/lens
  concentration at 0.25 h: 1480 ng/g
Sprague Dawley, vitreous humour/lens, rat, topical eye 10 mg/ml (eye drop of 10 μl) = 0.1 mg, 1 h, read-out: CDO concentrations Vitreous humour/lens
  concentration at 1 h: 1680 ng/g
Sprague Dawley, vitreous humour/lens, rat, topical eye 10 mg/ml (eye drop of 10 μl) = 0.1 mg, 3 h, read-out: CDO concentrations Vitreous humour/lens
  concentration at 3 h: 190 ng/g
Sprague-Dawley, optic nerve, rat, topical eye 10 mg/ml (eye drop of 10 μl) = 0.1 mg, 0.25 h, read-out: CDO concentrations Optic nerve
  concentration at 0.25 h: 5300 ng/g
Sprague-Dawley, optic nerve, rat, topical eye 10 mg/ml (eye drop of 10 μl) = 0.1 mg, 1 h, read-out: CDO concentrations Optic nerve
  concentration at 1 h: 850 ng/g
Sprague-Dawley, optic nerve, rat, topical eye 10 mg/ml (eye drop of 10 μl) = 0.1 mg, 6 h, read-out: CDO concentrations Optic nerve
  concentration at 6 h: 250 ng/g
Sprague-Dawley, optic nerve, rat, topical eye 100 mg/ml (eye drop of 10 μl) = 1 mg, 0.25 h, read-out: CDO concentrations Optic nerve
  concentration at 0.25 h: 13700 ng/g
Sprague-Dawley, optic nerve, rat, topical eye 100 mg/ml (eye drop of 10 μl) = 1 mg, 1 h, read-out: CDO concentrations Optic nerve
  concentration at 1 h: 2910 ng/g
Sprague-Dawley, optic nerve, rat, topical eye 100 mg/ml (eye drop of 10 μl) = 1 mg, 3 h, read-out: CDO concentrations Optic nerve
  concentration at 3 h: 1920 ng/g
Sprague-Dawley, optic nerve, rat, topical eye 100 mg/ml (eye drop of 10 μl) = 1 mg, 6 h, read-out: CDO concentrations Optic nerve
  concentration at 6 h: 2650 ng/g
Sprague-Dawley, plasma, rat, topical eye 10 mg/ml (eye drop of 10 μl) = 0.1 mg, 0.25 h, read-out: CDO concentrations Plasma
  concentration at 0.25 h: 10 ng/g
Sprague-Dawley, plasma, rat, topical eye 10 mg/ml (eye drop of 10 μl) = 0.1 mg, 1 h, read-out: CDO concentrations Plasma
  concentration at 1 h: 10 ng/g
Sprague-Dawley, plasma, rat, topical eye 10 mg/ml (eye drop of 10 μl) = 0.1 mg, 3 h, read-out: CDO concentrations Plasma
  concentration at 3 h: 80 ng/g
Sprague-Dawley, plasma, rat, topical eye 100 mg/ml (eye drop of 10 μl) = 1 mg, 0.25 h, read-out: CDO concentrations Plasma
  concentration at 0.25 h: 220 ng/g
Sprague-Dawley, plasma, rat, topical eye 100 mg/ml (eye drop of 10 μl) = 1 mg, 1 h, read-out: CDO concentrations Plasma
  concentration at 1 h: 370 ng/g
Sprague-Dawley, plasma, rat, topical eye 100 mg/ml (eye drop of 10 μl) = 1 mg, 3 h, read-out: CDO concentrations Plasma
  concentration at 3 h: 280 ng/g
Sprague-Dawley, retina/choroid, rat, topical eye 100 mg/ml (eye drop of 10 μl) = 1 mg, 1 h, read-out: CDO concentrations Retina/Choroid
  concentration at 1 h: 1520 ng/g
Sprague-Dawley, retina/choroid, rat, topical eye 100 mg/ml (eye drop of 10 μl) = 1 mg, 3 h, read-out: CDO concentrations Retina/Choroid
  concentration at 3 h: 1570 ng/g
rat, 6 hours after topical ocular administration
  CDO amounts in target tissues (optic nerve and retina choroids) 6 hours after topical ocular administration: could be detected
[1]
  CDO concentrations Optic nerve: —
  CDO concentrations Retina: —
[2]
  CDO concentrations Optic nerve: —
  CDO concentrations Retina: —
rat, oral 50 mg/Kg = 10 mg, 3 h
  CDO concentrations Retina: —
rat, oral 50 mg/Kg = 10 mg, 6 h
  CDO concentrations Retina: —
rat, single dose
  amount of CDO orally administered showing equivalent levels in retina to 1 mg CDO instilled onto the eye surface: 40 to 150 mg
rat, topical eye 10 mg/ml (eye drop of 10 μl) = 0.1 mg, 1 h
  CDO concentrations Retina: —
[3]
  CDO concentrations Optic nerve: —
  CDO concentrations Retina: —
rat, topical eye 10 mg/ml (eye drop of 10 μl) = 0.1 mg, 6 h
  CDO concentrations Retina: —
rats, topical eye administration
  plasmatic levels after topical eye administration: low plasmatic levels
